Test results taken from article PMC11721942 (Journal of Enzyme Inhibition and Medicinal Chemistry, 2023).
Where a name gives a salt, the structure may show the parent alone. Read-outs that look alike come from different tables or passages of the source.

What was measured:
yeast α-glucosidase = yeast α-glucosidase (Saccharomyces cerevisiae, UniProt P53341); type: biochemical
α-glucosidase (yeast) = conditions: cited from earlier work
[1] = biological target: ER glucosidase II (rat liver); conditions: read-out: Inhibitory activity IC50; cited from earlier work
SARS-CoV-2 [2] = conditions: Vero E6 cells; cited from earlier work
A549-ACE2 cells = assay: Cell toxicity assay; type: cell-based, human
human α-galactosidase A = biological target: T1, human α-galactosidase A (Homo sapiens, UniProt P06280); type: biochemical
T1 sequence (P06280 32-429): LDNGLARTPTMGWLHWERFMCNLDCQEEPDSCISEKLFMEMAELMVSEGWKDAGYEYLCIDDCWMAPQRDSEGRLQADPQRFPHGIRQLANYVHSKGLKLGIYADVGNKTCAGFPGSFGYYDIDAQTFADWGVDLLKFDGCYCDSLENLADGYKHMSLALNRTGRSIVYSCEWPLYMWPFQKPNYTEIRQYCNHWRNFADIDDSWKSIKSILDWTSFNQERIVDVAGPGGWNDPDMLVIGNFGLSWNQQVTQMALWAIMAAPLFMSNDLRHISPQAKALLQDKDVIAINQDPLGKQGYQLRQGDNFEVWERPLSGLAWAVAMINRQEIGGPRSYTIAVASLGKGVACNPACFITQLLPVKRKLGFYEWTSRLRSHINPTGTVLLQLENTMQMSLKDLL

α-glucosidase in rice = conditions: cited from earlier work
SARS-CoV-2 [3] = conditions: A549-ACE2 cells; cited from earlier work
[4] = test system: influenza haemagglutinin folding process in ER; conditions: cited from earlier work
severe COVID-19 = severe COVID-19 patients; cited from earlier work

Sequence of yeast α-glucosidase (P53341 whole entry): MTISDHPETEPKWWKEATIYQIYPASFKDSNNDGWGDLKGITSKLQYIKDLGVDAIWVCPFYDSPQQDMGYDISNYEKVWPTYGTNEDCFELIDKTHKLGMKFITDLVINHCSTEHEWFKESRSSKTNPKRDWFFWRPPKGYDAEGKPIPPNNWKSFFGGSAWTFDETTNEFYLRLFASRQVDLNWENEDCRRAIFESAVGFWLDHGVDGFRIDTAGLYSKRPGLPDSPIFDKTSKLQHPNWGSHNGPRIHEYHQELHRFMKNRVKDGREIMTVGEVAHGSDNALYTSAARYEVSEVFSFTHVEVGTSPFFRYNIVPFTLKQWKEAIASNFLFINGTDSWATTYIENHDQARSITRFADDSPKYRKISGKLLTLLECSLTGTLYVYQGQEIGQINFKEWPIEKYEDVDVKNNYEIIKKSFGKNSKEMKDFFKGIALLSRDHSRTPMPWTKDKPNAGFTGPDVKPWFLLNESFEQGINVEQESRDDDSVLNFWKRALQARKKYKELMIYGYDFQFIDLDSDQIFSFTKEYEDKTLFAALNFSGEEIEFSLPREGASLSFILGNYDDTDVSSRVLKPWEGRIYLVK

CCCCN1C[C@H](O)[C@@H](O)[C@H](O)[C@H]1CO [Compound 1, N-butyldeoxynojirimycin]
IC50 (yeast α-glucosidase): > 500 µM | Inhibitory activity, % at 1 mM (α-glucosidase (yeast); 1 mM): 12.7% | IC50 [1]: 13 µM | EC50 (SARS-CoV-2 [2]): 41 ± 22 µM

CC/C(=C(\c1ccccc1)c1ccc(OCCN(C)C)cc1)c1ccccc1 [Compound 72, tamoxifen]
cytotoxicity, concentration relative to antiviral EC90 (A549-ACE2 cells): 100 fold

CN1C[C@H](O)[C@@H](O)[C@@H](O)[C@H]1CO [Compound 87, (2R,3S,4R,5S)-2-(hydroxymethyl)-1-methylpiperidine-3,4,5-triol]
IC50 (human α-galactosidase A): 5.1 µM

OC[C@H]1NC[C@H](O)[C@@H](O)[C@@H]1O [Compound 2, deoxynojirimycin]
IC50 [1]: 16 µM

OCCN1C[C@H](O)[C@@H](O)[C@H](O)[C@H]1CO [Compound 8, miglitol]
IC50 (yeast α-glucosidase): > 500 µM | IC50 (α-glucosidase (yeast)): > 1 mM | IC50 (α-glucosidase (yeast); read-out: Inhibitory activity IC50, ref 37): 9.88 mM | IC50 (α-glucosidase (yeast); read-out: Inhibitory activity IC50, ref 46): 0.0413 mM | IC50 (α-glucosidase in rice): 50 nM

OC[C@@H]1[C@@H](O)[C@H](O)[C@@H](O)CN1CCCCCC12CC(C1)C2 [Compound 22, (2 R,3R,4R,5S)-1–(5-(Bicyclo[1.1.1]pentan-1-yl)pentyl)-3,4,5-trihydroxy-2-(hydroxymethyl)piperidin-1-ium chloride]
IC50 (yeast α-glucosidase): 218 µM

COCCCCCCCCCN1C[C@H](O)[C@@H](O)[C@H](O)[C@H]1CO [UV-4]
EC50 (SARS-CoV-2 [3]): 4 µM

CCCCCCCCCN1C[C@H](O)[C@@H](O)[C@H](O)[C@H]1CO [Compound 76, (2R,3R,4R,5S)-2-(hydroxymethyl)-1-nonylpiperidine-3,4,5-triol]
IC50 (yeast α-glucosidase): 70 µM

CCCCCCCCCN1CC[C@@H](O)[C@@H](O)[C@H]1CO [Compound 94, (2R,3S,4R)-2-(hydroxymethyl)-1-nonylpiperidine-3,4-diol]
IC50 (human α-galactosidase A): > 100 µM

CN1NC[C@@H](O)[C@@H](O)[C@H]1CO [Compound 104, (4R,5S,6R)-6-(hydroxymethyl)-1-methylhexahydropyridazine-4,5-diol hydrochloride]
IC50 (human α-galactosidase A): > 100 µM

OC[C@H]1NNC[C@@H](O)[C@H]1O [Compound 40, (3 R,4S,5R)-3-(hydroxymethyl)hexahydropyridazine-4,5-diol hydrochloride]
IC50 (human α-galactosidase A): > 100 µM

OC[C@@H]1[C@@H](O)[C@H](O)[C@@H](O)CN1CCCCCOCC12CC3CC(CC(C3)C1)C2 [Compound 77, (2 R,3R,4R,5S)-1–(5-(adamantan-1-ylmethoxy)pentyl)-2-(hydroxymethyl)piperidine-3,4,5-triol]
IC50 (yeast α-glucosidase): 67 µM | concentration at which inhibition occurred [4]: 200 µM

CCCCCCCCCN1C[C@H](O)[C@@H](O)[C@@H](O)[C@H]1CO [Compound 89, (2R,3S,4R,5S)-2-(hydroxymethyl)-1-nonylpiperidine-3,4,5-triol]
IC50 (human α-galactosidase A): > 100 µM

CCCC(=O)O[C@H]1CN2CC[C@H](O)[C@@H]2[C@@H](O)[C@@H]1O [celgosivir]
EC50 (SARS-CoV-2 [2]): 1 ± 0.2 µM

C[C@@H]1C[C@H]2[C@@H]3CCC4=CC(=O)C=C[C@]4(C)[C@@]3(F)[C@@H](O)C[C@]2(C)[C@@]1(O)C(=O)CO [dexamethasone]
reduction of mortality (severe COVID-19): 30%

CN1C[C@H](O)[C@@H](O)[C@H](O)[C@H]1CO [Compound 75, (2R,3R,4R,5S)-2-(hydroxymethyl)-1-methylpiperidine-3,4,5-triol]
IC50 (yeast α-glucosidase): 572 µM

O[C@H]1[C@H]2[C@H](O)CCCN2C[C@H]1O [Compound 3, swainsonine]
cytotoxicity at EC90 concentrations (A549-ACE2 cells): cytotoxicity at EC90 concentrations
